In US11081236B2, “Diagnostic and therapeutic methods for the treatment of breast cancer” (GENENTECH, INC., priority 2018, dated 2021):

Tested on: panel of 14 ER+/HER2− breast cancer cell lines
Experiment: 8-day in vitro viability assay, GR (Growth Rate) method
Type: cell-based
Settings: 300 nM
Description: The relationship between ER pathway activity and the anti-proliferative effect of the ER antagonist fulvestrant was explored in a panel of 14 ER+/HER2− breast cancer cell lines. RNA-sequencing data was leveraged to determine the E2-induced score, determined by expression of a set of E2-induced genes (as described above), of a series of ER+/HER2− breast cancer cell lines grown under standard culture conditions, in the presence of estrogen. The effect of ER inhibition by 300 nM fulvestrant on cellular proliferation was determined in an 8-day in vitro viability assay using the GR (Growth Rate) method described by Hafner et al. (Nat Methods 13:6, 2016). The E2-induced score was then plotted against the effect of fulvestrant on cellular growth rate.

C[C@]12CC[C@@H]3c4ccc(O)cc4C[C@@H](CCCCCCCCC[S+]([O-])CCCC(F)(F)C(F)(F)F)[C@H]3[C@@H]1CC[C@@H]2O (some centres unmarked) [Fulvestrant, fulvestrant]
impact on growth rate (cell lines exhibiting higher E2-induced scores): considerably greater impact
impact on growth rate (cell lines with E2-induced scores in the lowest 25th percentile (ZR-75-1, MDA-MB-415, MDA-MB-175-VII, KPL-1)): little impact
